According to ChEMBL document CHEMBL1201862, “PubChem BioAssay data set” (2004):
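96-well plates; 48 h exposure; 5 concentrations. Endpoints by linear interpolation between flanking doses. Not reached: highest tested concentration assigned. GI50: concentration for 50% inhibition of growth.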 Active and inactive are the calls of the source. Cut-off read from the data, not from the text of the source: active = GI50 up to about 1.1 µM and inactive = higher.

Key:
Assay in all cases: DTP human tumour cell line panel, 48 h
[1] = tested on: CAKI-1
[2] = tested on: COLO 205
[3] = tested on: EKVX
[4] = tested on: HCC 2998
[5] = tested on: HCT-15
[6] = tested on: HOP-62
[7] = tested on: IGROV-1
[8] = tested on: K562
[9] = tested on: MOLT-4
[10] = tested on: SK-MEL-28
[11] = tested on: SK-MEL-2
[12] = tested on: SR
[13] = tested on: SW-620
[14] = tested on: TK-10
[15] = tested on: DU-145
[16] = tested on: MDA-MB-231
[17] = tested on: MDA-N
[18] = tested on: NCI-H23
[19] = tested on: OVCAR-8

| Structure (SMILES) | GI50 [1] | GI50 [2] | GI50 [3] | GI50 [4] | GI50 [5] [µM] | GI50 [6] | GI50 [7] | GI50 [8] | GI50 [9] | GI50 [10] | GI50 [11] | GI50 [12] | GI50 [13] | GI50 [14] | GI50 [15] | GI50 [16] | GI50 [17] | GI50 [18] | GI50 [19] |
| --- | --- | --- | --- | --- | --- | --- | --- | --- | --- | --- | --- | --- | --- | --- | --- | --- | --- | --- | --- |
| Oc1nnc(CNc2ccc(Cl)cc2Cl)c2ccccc12 | 24.1 µM (inactive) | 45.8 µM (inactive) | 36.2 µM (inactive) | 20 µM (inactive) | 20.1 | 20.5 µM (inactive) | 25.5 µM (inactive) | 44.9 µM (inactive) | 31.5 µM (inactive) | 22.3 µM (inactive) | 82.8 µM (inactive) | 32.7 µM (inactive) | 37.1 µM (inactive) | 20.7 µM (inactive) |  |  |  |  |  |
| CCOC(=O)CCC(NC(=O)c1ccc(CNc2nc3ccccc3nc2C(=O)OCC)cc1)C(=O)OCC (stereo not given) |  | > 100 µM (inactive) | > 100 µM (inactive) |  | > 100 | > 100 µM (inactive) | 43.7 µM (inactive) | > 100 µM (inactive) | > 100 µM (inactive) | > 100 µM (inactive) | > 100 µM (inactive) |  | > 100 µM (inactive) | > 100 µM (inactive) | > 100 µM (inactive) | 24.9 µM (inactive) | > 100 µM (inactive) | > 100 µM (inactive) | > 100 µM (inactive) |
| NC(=O)N/N=C(\CC1OC(=O)c2ccccc21)c1ccc([N+](=O)[O-])cc1 (stereo not given) | 23.6 µM (inactive) | 46.8 µM (inactive) | 33.8 µM (inactive) | 18 µM (inactive) | 24.5 | 22.7 µM (inactive) | 23.7 µM (inactive) | > 10 µM (inactive) | 27.7 µM (inactive) |  | 19.4 µM (inactive) | 32.7 µM (inactive) | 35.7 µM (inactive) | > 100 µM (inactive) |  |  |  |  | > 10 µM (inactive) |
| O=C(ON=C1c2ccccc2C(Br)C(Br)c2ccccc21)c1cc([N+](=O)[O-])cc([N+](=O)[O-])c1 (stereo not given) | 20.5 µM (inactive) | 20.3 µM (inactive) | 25.4 µM (inactive) | 29.4 µM (inactive) | 20.5 | 18 µM (inactive) | 2.8 µM (inactive) | 16.9 µM (inactive) | 7.45 µM (inactive) | 18.9 µM (inactive) | 31.6 µM (inactive) | 0.245 µM (active) | 18.7 µM (inactive) | 23.2 µM (inactive) | 25.9 µM (inactive) | 19.2 µM (inactive) | 22.1 µM (inactive) | 20.3 µM (inactive) | 17.3 µM (inactive) |
| CCc1cc(Cc2cc(Cl)c(NC(=O)C(=O)C3NC(=O)NC3=O)c(CC)c2)cc(Cl)c1NC(=O)C(=O)C1NC(=O)NC1=O (stereo not given) | > 100 µM (inactive) | 57.8 µM (inactive) | > 100 µM (inactive) | 42.8 µM (inactive) | 17.3 | > 100 µM (inactive) | > 100 µM (inactive) | 37.2 µM (inactive) | 66.5 µM (inactive) | 37.5 µM (inactive) | > 100 µM (inactive) | 37.2 µM (inactive) | 8.47 µM (inactive) | > 100 µM (inactive) |  |  |  | 26.6 µM (inactive) | 21.4 µM (inactive) |
| O=C(CSCC(=O)N/N=C/c1cccc(O)c1)N/N=C/c1cccc(O)c1 | > 100 µM (inactive) | > 100 µM (inactive) | > 100 µM (inactive) | > 100 µM (inactive) | > 100 | > 100 µM (inactive) | > 100 µM (inactive) | > 100 µM (inactive) | > 100 µM (inactive) | > 100 µM (inactive) | > 100 µM (inactive) | > 100 µM (inactive) | > 100 µM (inactive) | > 100 µM (inactive) | > 100 µM (inactive) | > 100 µM (inactive) |  | > 100 µM (inactive) | > 100 µM (inactive) |
| O=c1oc2cccnc2n1CCCCN1CCN(c2ccccc2)CC1 | > 100 µM (inactive) |  | > 100 µM (inactive) | > 100 µM (inactive) | > 100 | > 100 µM (inactive) | > 100 µM (inactive) | > 100 µM (inactive) | > 100 µM (inactive) | > 100 µM (inactive) | > 100 µM (inactive) | > 100 µM (inactive) | > 100 µM (inactive) | > 100 µM (inactive) | > 100 µM (inactive) | > 100 µM (inactive) | > 100 µM (inactive) | > 100 µM (inactive) | > 100 µM (inactive) |
| COC(=O)C1Cc2c(n(Cc3ccccc3)c3ccccc23)C(CCC(=O)O)N1C(C)C (stereo not given) | > 100 µM (inactive) | > 100 µM (inactive) | > 100 µM (inactive) | > 100 µM (inactive) | > 100 |  | > 100 µM (inactive) | > 100 µM (inactive) | > 100 µM (inactive) | > 100 µM (inactive) | > 100 µM (inactive) | > 100 µM (inactive) | > 100 µM (inactive) | > 100 µM (inactive) |  |  |  | > 100 µM (inactive) | > 100 µM (inactive) |
